Assay results reported in the NIST ThermoML archive (doi:10.1016/j.jct.2006.08.003).
Numbers after ± are expanded uncertainties.

Experiment: mn = molality of the nth substance listed, in mol/kg
Conditions: 298.15 K, 101 kPa, Liquid; for speed of sound: Sing-around technique in a fixed-path interferometer

Compound: C[C@@H](O)[C@H](N)C(=O)O [L-threonine] + O
- speed of sound (m1 = 0.1013): 1504.7 ± 1.5 m/s
- speed of sound (m1 = 0.1405): 1507.7 ± 1.5 m/s
- speed of sound (m1 = 0.1798): 1510.9 ± 1.5 m/s
- speed of sound (m1 = 0.2227): 1514.3 ± 1.5 m/s
- speed of sound (m1 = 0.2524): 1516.6 ± 1.5 m/s
- speed of sound (m1 = 0.2755): 1518.7 ± 1.5 m/s
- mass density (m1 = 0.04618): 998.993 ± 0.44 kg/m3
- mass density (m1 = 0.1013): 1001.29 ± 0.44 kg/m3
- mass density (m1 = 0.1405): 1002.91 ± 0.45 kg/m3
- mass density (m1 = 0.1798): 1004.51 ± 0.45 kg/m3
- mass density (m1 = 0.2227): 1006.26 ± 0.46 kg/m3
- mass density (m1 = 0.2524): 1007.45 ± 0.46 kg/m3
- mass density (m1 = 0.2755): 1008.38 ± 0.47 kg/m3

Compound: CC(=O)[O-].CC(=O)[O-].[Mg+2] [magnesium acetate] + O
- speed of sound (m1 = 0.5): 1571.7 ± 1.4 m/s
- speed of sound (m1 = 1): 1630.4 ± 1.4 m/s
- speed of sound (m1 = 1.5): 1680.2 ± 1.4 m/s
- speed of sound (m1 = 2): 1724.4 ± 1.4 m/s

Compound: CC(=O)[O-].[Na+] [sodium ethanoate] + O
- speed of sound (m1 = 0.5): 1547.6 ± 1.3 m/s
- speed of sound (m1 = 1): 1590.4 ± 1.3 m/s
- speed of sound (m1 = 2): 1658 ± 1.4 m/s
- speed of sound (m1 = 4): 1761.8 ± 1.4 m/s

Compound: N[C@@H](CO)C(=O)O [L-serine] + O
- speed of sound (m1 = 0.1015): 1503 ± 1.3 m/s
- speed of sound (m1 = 0.1508): 1506.1 ± 1.3 m/s
- speed of sound (m1 = 0.1958): 1509 ± 1.3 m/s
- speed of sound (m1 = 0.2564): 1512.7 ± 1.3 m/s
- speed of sound (m1 = 0.2888): 1514.9 ± 1.3 m/s
- speed of sound (m1 = 0.3655): 1519.8 ± 1.3 m/s
- mass density (m1 = 0.1015): 1001.52 ± 0.24 kg/m3
- mass density (m1 = 0.1508): 1003.67 ± 0.25 kg/m3
- mass density (m1 = 0.1958): 1005.62 ± 0.25 kg/m3
- mass density (m1 = 0.2564): 1008.21 ± 0.26 kg/m3
- mass density (m1 = 0.2888): 1009.59 ± 0.26 kg/m3
- mass density (m1 = 0.3655): 1012.8 ± 0.27 kg/m3
